Assay [1] relates to C57BL6 mice, moderate contusion spinal cord injury (SCI) at T9-T10. The assay is described as follows: Basso Mouse Scale (BMS) open-field locomotor function after moderate contusion SCI. It counts as in vivo. Particulars: oral, twice daily starting at 4-dpi; at 13 dpi; vs vehicle-treated SCI mice; N=5. As to the method: (§1) FIGS. 1A-C show the effects of boldine on locomotor functional recovery of C57BL6 mice after moderate spinal cord injury (SCI) at the interspace between thoracic vertebrae T9 and T10.
(§2) Function was determined by behavioral testing using both the Basso Mouse Scale (BMS) score (FIG. 1A) and the ladder rung walk test (LRWT) (FIG. 1B). While sham mice had normal BMS scores a few days after laminectomy, the BMS scores for contusion-SCI mice were much lower. […] (N=5; ANOVA *p<0.05 and **p<0.005 respectively).

For assay [2] the test system is unchanged. The assay can be described thus: Ladder rung walk test (LRWT) after moderate contusion SCI. It counts as in vivo, mouse. To be noted: oral, twice daily starting at 4-dpi; at 13-dpi; vehicle-treated SCI mice 83%; N=5. The protocol: as §1, §2
A further assay relates to caspase-1 mRNA. The assay can be described thus: Hippocampus mRNA levels by qPCR after contusion SCI. It counts as in vivo, mouse. Particulars: contusion SCI mice, 13 dpi, N=3. As to the method: (§3) FIGS. 2A-D show plots of mRNA levels of Cx43 (2A), NLRP3 (2B), ASC (2C), and caspase-1 (2D) in the hippocampus of sham mice and those having contusion spinal cord injury (SCI) with and without boldine treatment. mRNA levels in the hippocampus were determined by qPCR at 13 dpi using tissues from mice that underwent laminectomy (Sham) or moderate (50 kdyne) contusion SCI. ((*p<0.05 by one-way ANOVA, N=3 per group).
(§4) In rats, a spinal cord injury (SCI) can result in cognitive deficits that are associated with activation in brain regions linked to pain processing and cognition of microglia and astrocytes as well as associated with upregulation of a gene involved in inflammation (Wu et al. 2013; Wu et al. 2014). Such changes may drive central pain in neuropathic pain syndromes. To determine whether boldine mitigates such changes, mRNA expression of Cx43 and genes involved in inflammasome assembly and activity were determined in mouse brains. While SCI increased caspase-1 in the hippocampus. […] These studies indicate that boldine can reduce neuropathic pain following spinal cord injury (SCI) associated with reductions in brain and spinal cord of expression of pro-inflammatory cytokines and chemokines linked to pathological pain.
Background: Real-time PCR tracks product formation cycle by cycle.

In a further assay the test system is CCL2 mRNA. The assay is described as follows: Thalamus mRNA levels by qPCR after contusion SCI. It counts as in vivo, mouse. To be noted: compared to vehicle-treated animals after contusion SCI; FIG. 3 (thalamus); N=3. As to the method:
as §3
(§5) FIGS. 3A-B are plots showing that boldine normalizes spinal cord injury (SCI)-induced elevation of IL-1B mRNA levels in the thalamus. mRNA levels were determined as described with reference to FIG. 2. (A) IL-1β; (B) CCL2. (*p<0.05 by ANOVA, N=3).
as §4

Another assay concerns IL-1β mRNA. The assay can be described thus: Thalamus mRNA levels by qPCR after contusion SCI. It counts as in vivo, mouse. The protocol:
as §3, §5, §4

The subject of a further assay is Ccl2. The assay is described as follows: Chemokine gene expression in spinal cord tissue of SCI mice. Particulars: C57B6 SCI animals at 14-dpi, vs vehicle; N=3, ANOVA p=0.091. It counts as in vivo, mouse. The protocol:
(§6) Additional studies were performed using tissues harvested from the mice for which behavioral testing data showing effects of boldine on Basso Mouse Scale and ladder rung walk test were collected. RNA-seq analysis was performed on spinal cord segments from SCI mice at 14-dpi treated with boldine or vehicle starting at 4-dpi (N=3 for each). Differentially expressed genes (DEGs) were clustered by their gene ontology (GO) and enrichment of GO terms was tested using a Fisher's exact test (GeneSCF v1.1-p2). Enriched DEGs were involved in pathways related to neutrophil activation and aggregation, inflammatory responses and astrocyte development.
(§7) Genes from a list of the top DEGs from the RNA-seq analysis were considered and tested for differences in gene expression of pro-inflammatory chemokines Ccl2 and Ccl3 between vehicle and boldine treated spinal cord tissues from C57B6 SCI animals at 14-dpi. Laminectomy-only (Sham) animals as were used as controls.

The next assay relates to Ccl3. Described as above. It counts as in vivo, mouse. To be noted: C57B6 SCI animals at 14-dpi, vs vehicle; N=3, ANOVA p=0.085. The protocol:
as §6, §7

In assay [3] the test system is neurite outgrowth marker GAP-43. The assay is described as follows: Immunofluorescence staining of injured spinal cords. The assay is classed as in vivo, mouse. To be noted: injured spinal cord transverse sections, SCI mice at 14-dpi, vs vehicle. As to the method: Immunofluorescence staining was performed on injured spinal cords of vehicle and boldine treated SCI mice at 14-dpi. 30-micron transverse sections were used to evaluate differences in the labeling of the neurite outgrowth marker GAP-43.

Assay [4] relates to CCL2 mRNA in LPS astrocytes. The assay is described as follows: mRNA expression after LPS-induced inflammatory response in astrocytic primary cell cultures. It counts as cell-based. Particulars: compared to vehicle-treated LPS astrocytes. As to the method:
To model effects of boldine on release of chemokines and other mediators, changes in mRNA expression after lipopolysaccharide (LPS)-induced inflammatory responses were analyzed using astrocytic primary cell cultures.

Data on one compound can be found in patent publication US12246012B2, “Method for treating nervous system injuries using boldine and derivatives thereof” (United States Government as Represented by the Department …, priority 2020, dated 2025).

For `COc1cc2c(cc1O)CC1c3c(cc(O)c(OC)c3-2)CCN1C` (racemic) [boldine], in [1], the BMS scores entry was “significantly increased”. Further, the LRWT incorrect steps in assay [2] amounted to 13%. Further, the “SCI-induced increase of caspase-1 mRNA in the hippocampus” value in the assay with caspase-1 mRNA was “appeared to be corrected”. The “reduction of mRNA levels of CCL2” value in the assay on CCL2 mRNA was determined as 47.2%; in assay [4] it was 38%. Moreover, the “reduction of mRNA levels of IL-10” value in the assay with IL-1β mRNA (compared to vehicle-treated animals after contusion SCI, FIG. 3 (thalamus), N=3) is on record as 65.5%. Also, the “SCI-induced elevation of IL-1B mRNA levels in the thalamus” value with IL-1β mRNA (contusion SCI mice, qPCR, N=3 (FIG. 3 legend)) is listed as “normalizes”. In addition, in the assay with Ccl2, the “Ccl2 gene expression in spinal cord tissue” value is given as “apparent decrease which did not reach our threshold for significance”. Further, the “Ccl3 gene expression in spinal cord tissue” value in the assay on Ccl3 is on record as “apparent decrease which did not reach our threshold for significance”. Besides, the GAP43 immunofluorescence result in assay [3] was “dramatically increased”.
